Laboratory results as given in US10259824B2, “Complement C3d-binding compounds” (The Regents of the University of California, priority 2015, dated 2019).

Tests used:
[1] = Absorption and fluorescence spectroscopy / fluorescence quantum yield; type: physicochemical; conditions: for Emission Peak / Excitation Peak / Quantum Yield: acetonitrile
Experimental: Absorption and fluorescence spectroscopy. Stock solutions of C3d-binding compounds (in DMSO) were diluted in spectroscopic grade acetonitrile (Fisher Scientific). The concentration of each sample was adjusted such that the absorption at the excitation wavelength was below 0.2, after correcting with blank acetonitrile solutions containing the same concentration of DMSO as the measured samples. The UV/visible absorption spectra (260-700 nm) were recorded on a JASCO V-670 spectrophotometer (Tokyo, Japan), using quartz cuvettes (1.0 cm path length, 3.0 ml total volume). The emission spectra were collected with a FluoroLog-3 spectrofluorometer (Horiba-Jobin-Yvon, Edison, N.J., USA). All samples were purged with argon prior to the measurements and all measurements were performed at room temperature.
Fluorescence quantum yield measurements. Fluorescence quantum yield values for the small molecules were calculated using one or more standard quantum yield fluorophores. Values were calculated according to Eq. 1.
where R and S subscripts denote reference compound and sample, respectively, Φfl is quantum yield, In is the total integrated fluorescence spectrum intensity obtained from integration of the emission spectra, An is sample absorbance at the excitation wavelength, and nn is the refractive index of the solvent. Reference compounds used for calculation included naphthalene (ΦR=0.23 for EtOH), anthracene (ΦR=0.27 for EtOH), and coumarin 1 (ΦR=0.73 for EtOH). Standard molecule quantum yield measurements were performed in acetonitrile, and solvent-dependent measurements were performed in spectroscopic grade methanol, ethanol, 1-propanol, 1-butanol, ethylene glycol, glycerol, and phosphate buffered saline.
To test the fluorescence dependence on the media viscosity, a protic media was used, i.e., an aqueous buffer and six alcohols with widely varying viscosities.

C3d [2] = biological target: T1, C3d (Homo sapiens, UniProt P01024); test: Microscale thermophoresis direct binding; conditions: 10 nM NT647-labeled C3d, MST buffer with 5% DMSO
T1 construct: Further cleavage events yield C3d (the terminal cleavage product of C3); purchased Complement Technology, Inc
T1 sequence (P01024 1002-1303 limits assumed): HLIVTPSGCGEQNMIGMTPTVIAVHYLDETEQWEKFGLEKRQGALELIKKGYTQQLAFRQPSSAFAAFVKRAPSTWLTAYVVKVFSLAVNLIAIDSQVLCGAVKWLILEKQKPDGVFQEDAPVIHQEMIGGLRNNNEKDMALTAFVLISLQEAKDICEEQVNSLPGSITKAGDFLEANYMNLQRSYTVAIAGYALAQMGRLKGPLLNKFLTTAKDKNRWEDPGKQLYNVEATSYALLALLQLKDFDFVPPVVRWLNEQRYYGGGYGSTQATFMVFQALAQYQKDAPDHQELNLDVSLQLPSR
Experimental: Microscale thermophoresis. Direct binding of molecules was assayed using a Monolith NT.115 (NanoTemper Technologies GmbH). Purified C3d (Complement Technology, Inc.) was labeled with NT647 dye using the kit from NanoTemper Technologies, and dissolved to 10 nM in MST buffer (50 mM Tris-HCl, 150 mM NaCl, 10 mM MgCl2, 0.05% Tween 20) containing 5% DMSO. A dilution series of each molecule was prepared in MST buffer containing 5% DMSO, and preincubated with 10 nM NT647-labeled C3d for 10 minutes at room temperature in the dark. Samples were loaded into hydrophilic capillary tubes, and measurements were obtained. For each molecule, reported KD values and binding curves represent results from three independent experiments.
Experimental evaluation of C3d binding. In order to validate the hits from vHTS, binding of 49 selected compounds were measured using microscale thermophoresis. All molecules were tested in a concentration-dependent manner; starting at a concentration of 200 μM (most molecules were poorly soluble in aqueous solution above this concentration). Ten molecules were identified that bound to C3d, with binding affinities (KD) ranging between 25-500 μM. The molecular structures and binding curves for top molecules are shown in FIG. 6, and other binding compounds are shown in FIG. 9.
Microscale Thermophoresis: Direct binding of a small number of selected molecules was tested using microscale thermophoresis. […] We used Efb, a protein secreted from Staphylococcus aureus that binds to C3d, as a positive control for binding (KD=3 nM) (see FIG. 11).

C3d-Ecb interaction = biological target: T2, C3d-Ecb interaction (Homo sapiens, UniProt P01024); test: Competitive binding ELISA, C3d-Ecb; design: species or system Staphylococcus aureus; conditions: plates coated with Ecb
T2 construct: Further cleavage events yield C3d (the terminal cleavage product of C3)
T2 sequence (P01024 1002-1303 limits assumed): as above
Experimental: (§1) Competitive binding ELISA: 50 molecules selected from virtual screening were tested for competitive binding against C3d and its interactions with endogenous protein CR2 and bacterial protein Ecb (homolog to Efb) from Staphylococcus aureus. ELISA plates were coated with CR2 or Ecb for 1 hour at 37° C. Plates were washed and blocked, then incubated with serial dilutions of C3d, with and without test molecules. Plates were incubated with a mouse monoclonal antibody against C3d, followed by a horseradish peroxidase-labeled anti-mouse IgG antibody. The amount of labeled antibody (and in turn, C3d) bound was detected via reaction with a substrate solution, followed by spectrophotometric measurement.

C3d-CR2 interaction = biological target: T3, C3d-CR2 interaction (Homo sapiens, UniProt P01024); test: Competitive binding ELISA, C3d-CR2; conditions: plates coated with CR2
T3 construct: Further cleavage events yield C3d (the terminal cleavage product of C3)
T3 sequence (P01024 1002-1303 limits assumed): as above
Experimental: as §1

C3d [3] = biological target: T1, C3d; test: Fluorescence of molecules in the presence of C3d; conditions: subsaturating concentrations of C3d
Experimental: The fluorescence properties of topperforming molecules in the presence of C3d were also evaluated. Often, when small molecule fluorophores bind to their targets, fluorescence may be quenched, an undesirable property for potential diagnostic molecules. […] Remarkably, Mol4 underwent drastic fluorescence enhancement in the presence of C3d, with up to 5-fold higher fluorescence at subsaturating concentrations of C3d (FIG. 14).

[4] = for EtOH; standard fluorophore; cited from earlier work
[5] = aqueous buffer and six alcohols

O=C(Nc1cccc(-c2cc3ccccc3[nH]2)c1)C1CCN(C(=O)C2CC23CCC3)CC1 (stereo not shown) [Mol 4]
Emission Peak [1]: 380 nm
Excitation Peak [1]: 315 nm
Quantum Yield [1]: 0.560
Kd (C3d [2]): 29 ± 8 µM

O=C(Nc1nc2ccccc2[nH]1)c1ccc(CNS(=O)(=O)c2ccc(F)c(F)c2F)cc1 [Mol 11]
Emission Peak [1]: 405 nm
Excitation Peak [1]: 310 nm
Quantum Yield [1]: 0.001
Kd (C3d [2]): 45 ± 13 µM

Cc1c(-c2ccc(F)cc2)[nH]c2ccc(CNC(=O)c3cc(=O)[nH]c(=O)[nH]3)cc12 [Mol 16]
Emission Peak [1]: 385 nm
Excitation Peak [1]: 310 nm
Quantum Yield [1]: 0.002
Kd (C3d [2]): 27 ± 5 µM

C[C@@H](Oc1ccc2[nH]c3ccccc3c(=O)c2c1)C(=O)NC(=O)NC12CC3CC(CC(C3)C1)C2 [Mol 17]
Emission Peak [1]: 500 nm
Excitation Peak [1]: 390/405
Quantum Yield [1]: 0.984
Kd (C3d [2]): 116 ± 41 µM

CC1Sc2ccc(C(=O)NNC(=O)c3cc(-c4ccco4)nc4ccccc34)cc2NC1=O (stereo not shown) [Mol 22]
Emission Peak [1]: 455 nm
Excitation Peak [1]: 355 nm
Quantum Yield [1]: 0.044
Kd (C3d [2]): 183 ± 81 µM

Cc1ccc(NC(=O)CSc2nnc3ccc(C(=O)Nc4cccc(F)c4)cn23)c(C)c1 [Mol 35]
inhibition of C3d-Ecb interaction (C3d-Ecb interaction): inhibit
Emission Peak [1]: 460 nm
Excitation Peak [1]: 275 nm
Quantum Yield [1]: 0.001
inhibition of C3d-CR2 interaction (C3d-CR2 interaction): inhibit
Kd (C3d [2]): 417 ± 171 µM

O=C(Cc1cccc(F)c1)Nc1ccc(N2CCC(NCc3ccc4ncccc4c3)CC2)cc1 [Mol 36]
Emission Peak [1]: 425 nm
Excitation Peak [1]: 320 nm
Quantum Yield [1]: 0.017
Kd (C3d [2]): 132 ± 28 µM

O=C(NC1CCCc2ccccc21)c1ccc(CN2CCN(CC=Cc3ccccc3)CC2)[nH]c1=O (stereo not shown) [Mol 42]
Emission Peak [1]: 390 nm
Excitation Peak [1]: 335 nm
Quantum Yield [1]: 0.011
Kd (C3d [2]): 45 ± 15 µM

O=C(Nc1ccc(C(=O)N2CCN(Cc3nc4sc5c(c4c(=O)[nH]3)CCCC5)CC2)s1)C1CC1 [Mol 50]
Kd (C3d [2]): 77 µM

O=C(Nc1cccc(-c2cc3ccccc3[nH]2)c1)C1CCN(C(=O)C2CC23CCC3)CC1 (stereo not shown) [Mol B4]
fluorescence enhancement in the presence of C3d (C3d [3]): up to 5 fold

Cc1c(-c2ccc(F)cc2)[nH]c2ccc(CNC(=O)c3cc(=O)[nH]c(=O)[nH]3)cc12 [Mol B16]
dependence of Φfl on solvent polarity [1, 5]: does not exhibit any dependence on solvent polarity
emission quantum yield at high media viscosity ([1]; media viscosity about 1,000 cP, protic media): ~0.015
emission quantum yield at low media viscosity ([1]; media viscosity about <1 cP, protic media): about 0.002

C[C@@H](Oc1ccc2[nH]c3ccccc3c(=O)c2c1)C(=O)NC(=O)NC12CC3CC(CC(C3)C1)C2 [Mol B17]
Quantum Yield ([1]; listed as Mol17): close to unity

CC1Sc2ccc(C(=O)NNC(=O)c3cc(-c4ccco4)nc4ccccc34)cc2NC1=O (stereo not shown) [Mol B22]
inhibition of C3d-Ecb interaction (C3d-Ecb interaction): inhibit
inhibition of C3d-CR2 interaction (C3d-CR2 interaction): inhibit

O=C(NC1CCCc2ccccc21)c1ccc(CN2CCN(CC=Cc3ccccc3)CC2)[nH]c1=O (stereo not shown) [Mol B42]
dependence of Φfl on media viscosity [1, 5]: does not manifest viscosity dependence
dependence of Φfl on solvent polarity [1, 5]: about an order of magnitude increase in Φfl

Cc1ccc(NC(=O)Cn2nnc(C(=O)Nc3ccc(C)cc3C)c2N)c(C)c1 [Mol B47]
inhibition of C3d-Ecb interaction (C3d-Ecb interaction): inhibits
inhibition of C3d-CR2 interaction (C3d-CR2 interaction): only inhibits the C3d-Ecb interaction

c1ccc2cc3ccccc3cc2c1 [anthracene]
reference quantum yield ΦR [4]: 0.27

CCN(CC)c1ccc2c(C)cc(=O)oc2c1 [coumarin 1]
reference quantum yield ΦR [4]: 0.73

c1ccc2ccccc2c1 [naphthalene]
reference quantum yield ΦR [4]: 0.23
